Source: PMC11432771, “Sphaerococcenol A Derivatives: Design, Synthesis, and Cytotoxicity” (Marine Drugs, 2024)

What was measured:
A549 cells = assay: MTT cytotoxicity assay, A549 cells; format: cell-based; settings: for IC50: MTT assay, 24 h, 1–100 µM, 95% confidence interval in parentheses; for SI (A549): SI = IC50 of FL83B/IC50 on A549
Excerpt: (§1) Three malignant cell lines (between passages 10 and 25) obtained from the DMSZ-German Collection of Microorganisms and Cell Cultures GmbH biobank were used: A549 (lung carcinoma), DU-145 (prostate carcinoma), and MCF-7 (breast adenocarcinoma). MCF-7 (ACC-115) and DU-145 (ACC-261) cells were maintained in RPMI 1640 medium (Merck, Darmstadt, Germany) supplemented with 10% FBS (fetal bovine serum, Biowest, Riverside, MO, USA) and 1% antimycotic and antibiotic solution (Biowest, Nuaillé, France). A549 (ACC-107) cells were maintained in DMEM:F12 medium (Merck, Darmstadt, Germany) and also supplemented with 10% FBS (Biowest, Riverside, MO, USA) and a 1% solution of antimycotic and antibiotic (Biowest, Nuaillé, France). FL83B hepatocytes (FL83B; ATCC: CLR-2390) were used as the non-malignant cell line. The cells were cultured in F-12K medium supplemented with FBS 10% (Biowest, Riverside, MO, USA) and 1% solution of antimycotic and antibiotic (Biowest, Nuaillé, France).
(§2) The effects of sphaerococcenol A and its analogues (1–6) on the viability of malignant cell lines were studied through three distinct assays, 3-(4,5-dimethylthiazol-2-yl)-2,5-diphenyltetrazolium bromide (MTT), lactate dehydrogenase (LDH) activity, and calcein-AM, targeting different cellular biomarkers. Untreated cells with DMSO (<0.2%) were used as control, and saponin (0.4 mg/mL) (Sigma, Darmstadt, Germany) was used as the positive control for cell death.
(§3) The cells were incubated with compounds at different concentrations (1–100 µM) for 24 h. After the 24 h was over, cells were washed with PBS buffer (pH = 7.4) and incubated for 60 min with the MTT solution (1.2 mM) previously prepared in a fresh medium. The MTT solution was then removed, and 100 µL of dimethyl sulfoxide (DMSO) was added to dissolve the formazan crystals. The results were expressed as the half-maximal inhibitory concentration (IC50) after reading the absorbance at 570 nm using a microplate reader (Synergy H1, BioTek Instruments, USA). The selectivity index (SI) was calculated as the ratio of the IC50 value for a normal cell line to the IC50 value for the corresponding tumor cell line (SI = IC50 of non-malignant cell line/IC50 of malignant cell line), where an SI ≥ 2 of a compound represents a selective toxicity towards malignant cells, while an SI value < 2 is considered generally toxic.
(§4) The data were obtained from at least three independent experiments (n = 3) carried out in triplicate and presented as mean ± standard error of the mean (SEM). The data were checked for normality and homoscedasticity. […] A one-way analysis of variance (ANOVA) with Dunnett′s multiple comparison of group means was employed to determine significant differences to the control treatment and/or a two-way ANOVA with Bonferroni’s test. All other post hoc analyses were conducted using Tukey’s test. The differences were considered significant at a level of 0.05 (p < 0.05). The inhibitory concentrations (IC50) were determined by means of the equation y = 100/(1 + 10(x − logIC50)). All data were analyzed using the software SPSS v28.0.0.0 (SPSS Inc., Chicago, IL, USA) and GraphPad v8.0.2 (GraphPad Software, Inc., La Jolla, CA, USA).

DU-145 cells = assay: MTT cytotoxicity assay, DU-145 cells; format: cell-based; settings: for SI (DU-145): SI = IC50 of FL83B/IC50 on DU-145; for IC50: Homo sapiens, DU-145, MTT assay, 24 h, 1–100 µM, 95% confidence interval in parentheses
Excerpt: as §1, §2, §3, §4

MCF-7 cells [1] = assay: MTT cytotoxicity assay, MCF-7 cells; format: cell-based; settings: for IC50: MTT assay, 24 h, 1–100 µM, 95% confidence interval in parentheses; for SI (MCF-7): SI = IC50 of FL83B/IC50 on MCF-7
Excerpt: as §1, §2, §3, §4

FL83B hepatocytes = assay: MTT cytotoxicity assay, non-malignant FL83B hepatocytes; format: cell-based; settings: non-malignant cell line, 24 h, 1–100 µM, 95% confidence interval in parentheses
Excerpt: Three malignant cell lines (between passages 10 and 25) obtained from the DMSZ-German Collection of Microorganisms and Cell Cultures GmbH biobank were used: A549 (lung carcinoma), DU-145 (prostate carcinoma), and MCF-7 (breast adenocarcinoma). MCF-7 (ACC-115) and DU-145 (ACC-261) cells were maintained in RPMI 1640 medium (Merck, Darmstadt, Germany) supplemented with 10% FBS (fetal bovine serum, Biowest, Riverside, MO, USA) and 1% antimycotic and antibiotic solution (Biowest, Nuaillé, France). A549 (ACC-107) cells were maintained in DMEM:F12 medium (Merck, Darmstadt, Germany) and also supplemented with 10% FBS (Biowest, Riverside, MO, USA) and a 1% solution of antimycotic and antibiotic (Biowest, Nuaillé, France). FL83B hepatocytes (FL83B; ATCC: CLR-2390) were used as the non-malignant cell line. The cells were cultured in F-12K medium supplemented with FBS 10% (Biowest, Riverside, MO, USA) and 1% solution of antimycotic and antibiotic (Biowest, Nuaillé, France). […]
as §3, with “After the 24 h was over, cells were washed with PBS buffer (pH = 7.4) and incubated for 60 min with the MTT solution (1.2 mM) previously prepared in a fresh medium. The MTT solution was then removed, and 100 µL of dimethyl sulfoxide (DMSO) was added to dissolve the formazan crystals.” left out
The data were obtained from at least three independent experiments (n = 3) carried out in triplicate and presented as mean ± standard error of the mean (SEM). […] The inhibitory concentrations (IC50) were determined by means of the equation y = 100/(1 + 10(x − logIC50)). All data were analyzed using the software SPSS v28.0.0.0 (SPSS Inc., Chicago, IL, USA) and GraphPad v8.0.2 (GraphPad Software, Inc., La Jolla, CA, USA).

[2] = system: A549, DU-145, and MCF-7 malignant cells; assay: MTT cytotoxicity assay, stated across the three malignant cell lines; format: cell-based; settings: SI = IC50 of FL83B/IC50 of malignant cell line; over A549, DU-145, MCF-7
Excerpt: Three malignant cell lines (between passages 10 and 25) obtained from the DMSZ-German Collection of Microorganisms and Cell Cultures GmbH biobank were used: A549 (lung carcinoma), DU-145 (prostate carcinoma), and MCF-7 (breast adenocarcinoma). MCF-7 (ACC-115) and DU-145 (ACC-261) cells were maintained in RPMI 1640 medium (Merck, Darmstadt, Germany) supplemented with 10% FBS (fetal bovine serum, Biowest, Riverside, MO, USA) and 1% antimycotic and antibiotic solution (Biowest, Nuaillé, France). […]
as §3, with “After the 24 h was over, cells were washed with PBS buffer (pH = 7.4) and incubated for 60 min with the MTT solution (1.2 mM) previously prepared in a fresh medium. The MTT solution was then removed, and 100 µL of dimethyl sulfoxide (DMSO) was added to dissolve the formazan crystals.” left out
The data were obtained from at least three independent experiments (n = 3) carried out in triplicate and presented as mean ± standard error of the mean (SEM). […] The inhibitory concentrations (IC50) were determined by means of the equation y = 100/(1 + 10(x − logIC50)). […]

U373 cells = system: U373 cells; set-up: method as in PMID 20045651; settings: inhibiting the cell entry into the mitosis phase; cited from earlier work
MCF-7 cells [3] = system: MCF-7 cells; set-up: method as in PMID 35378501; settings: previous studies; cited from earlier work

Structure (SMILES) | IC50 (A549 cells) | SI (A549) (A549 cells) | SI (DU-145) (DU-145 cells) | IC50 (MCF-7 cells [1]) | SI (MCF-7) (MCF-7 cells [1]) | IC50 (FL83B hepatocytes) | IC50 (A549 cells; Homo sapiens, A549, 24 h) | IC50 (DU-145 cells) | selectivity index across the malignant cell lines [2] | IC50 (MCF-7 cells [1]; Homo sapiens, MCF7, 24 h) | effect on human apoptosis-resistant U373 cells (U373 cells) | events accompanying decrease in MCF-7 cell viability (MCF-7 cells [3])
CCCSC1CC(=O)[C@@](C)(O)[C@H]2[C@@H]3C=CC[C@@H](C(C)C)[C@@]3(CBr)CC[C@]12C (single isomer, unassigned) [Compound 3] | 22.5 µM | 2.5 | 2.8 | 14.3 µM | 4.0 | 56.7 µM |  |  |  |  |  | 
CC(C)[C@@H]1CC=C[C@H]2[C@@H]3[C@](C)(O)C(=O)CC(SCc4ccccc4)[C@@]3(C)CC[C@]12CBr (stereo partly drawn) [Compound 4, (4S,4aS,4bS,8S,8aS,10aS)-1-(Benzylthio)-8a-(bromomethyl)-4-hydroxy-8-isopropyl-4,10a-dimethyl-1,4,4a,4b,7,8,8a,9,10,10a-decahydrophenanthren-3(2H)-one] |  | 1.1 | 0.6 |  | 1.3 | 40.3 µM | 35.5 µM | 70.1 µM | 0.6–1.3 |  |  | 
CC(C)C1CC=CC2C3C(C)(CCC(O)C3(C)O)CCC21CBr (stereo not drawn) [Compound 5] |  | 3.7 | 4.4 |  | 2.6 |  |  |  |  |  |  | 
CC(C)C1CC=CC2C3C(C)(CCC(O)C3(C)O)CCC21CBr (stereo not drawn) [Compound 6] |  | 1.9 | 3.1 |  | 2.9 |  |  |  |  |  |  | 
CC(C)[C@@H]1CC=C[C@H]2[C@H]3[C@@](C)(C=CC(=O)[C@@]3(C)O)CC[C@]12CBr [Sphaerococcenol A] |  | 2.5 | 10.0 |  | 5.7 | 37.4 µM | 15 µM | 3.75 µM |  | 6.53 µM | cytostatic effect | production of hydrogen peroxide, changes in mitochondrial membrane potential, the stimulation of Caspase-9 activity, and nuclear morphology alterations
CCCSC1CC(=O)[C@@](C)(O)[C@H]2[C@@H]3C=CC[C@@H](C(C)C)[C@@]3(CBr)CC[C@]12C (single isomer, unassigned) [Compound 2] |  | 1.4 | 1.9 | 70.3 µM | 0.7 |  | 33.8 µM |  |  |  |  | 
